Assay results: publication PMC3171627 (Bioorganic & medicinal chemistry letters, 2011)

What was measured:
CB2 = details: read-out: CB2 functional activity EC50; GTPγ[35S] assay; antagonist series; cited from earlier work
CB1 = CB1 (Homo sapiens, UniProt P21554); details: GTPγ[35S] assay; antagonist series; cited from earlier work
CB2 receptor = CB2 receptor (Mus musculus, UniProt P47936); test: visualization of CB2 receptor binding by CD4+ T cells, confocal microscopy; format: cell-based; details: 5 µM, on ice for 30 minutes, T cells from peripheral lymph nodes of BALB/C mice
Chain of CB2 receptor (P47936 whole entry): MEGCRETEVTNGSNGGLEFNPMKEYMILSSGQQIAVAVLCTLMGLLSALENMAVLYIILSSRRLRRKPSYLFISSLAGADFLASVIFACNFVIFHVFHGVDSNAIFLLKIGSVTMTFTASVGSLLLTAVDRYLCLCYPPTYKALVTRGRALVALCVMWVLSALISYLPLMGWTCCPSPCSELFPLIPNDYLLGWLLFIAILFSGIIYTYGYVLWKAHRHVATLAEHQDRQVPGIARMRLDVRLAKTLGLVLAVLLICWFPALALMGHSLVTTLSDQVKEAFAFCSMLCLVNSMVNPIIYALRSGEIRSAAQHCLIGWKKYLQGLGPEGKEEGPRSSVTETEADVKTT

Chain of CB1 (P21554 whole entry, species assumed): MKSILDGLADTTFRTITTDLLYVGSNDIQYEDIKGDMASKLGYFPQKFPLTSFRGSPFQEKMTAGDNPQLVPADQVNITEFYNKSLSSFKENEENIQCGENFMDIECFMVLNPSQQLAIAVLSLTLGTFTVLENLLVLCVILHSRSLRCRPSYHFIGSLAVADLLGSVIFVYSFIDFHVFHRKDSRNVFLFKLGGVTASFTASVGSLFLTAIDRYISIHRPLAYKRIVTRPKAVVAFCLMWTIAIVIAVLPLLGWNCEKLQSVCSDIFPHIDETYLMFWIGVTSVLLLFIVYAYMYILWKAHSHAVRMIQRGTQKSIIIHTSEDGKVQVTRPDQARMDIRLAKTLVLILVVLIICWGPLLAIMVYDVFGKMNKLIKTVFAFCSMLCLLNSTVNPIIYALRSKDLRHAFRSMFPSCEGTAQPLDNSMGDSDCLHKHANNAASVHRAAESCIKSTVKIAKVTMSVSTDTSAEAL

Compound	EC50 (CB2) [nM]	CB1 activity (CB1)	staining of CD4+ T cells (CB2 receptor)
CCCCCN1C(=O)/C(=N\NC(=O)CN2CCOCC2)c2ccc(OC)cc21 [Compound 5]	13.3	did not show any CB1 functional activity	
CCCCCN1C(=O)/C(=N\NC(=O)CN(C)c2ccc([N+](=O)[O-])c3nonc23)c2ccc(OC)cc21 [Compound 6]			stained the CD4^+ T cells
